Here are results for 6 compounds from patent US8946230B2, “Aryl- and heteroaryl- nitrogen-heterocyclic compounds as PDE10 inhibitors” (Amgen Inc., priority 2010, dated 2015).

For orientation: pIC50 means the negative decadic logarithm of the IC50, by convention in mol/L.

pIC50: −log10 of the molar value.

One experiment concerns the target T1, PDE10 (UniProt Q8CA95).
T1 sequence (Q8CA95 1-790): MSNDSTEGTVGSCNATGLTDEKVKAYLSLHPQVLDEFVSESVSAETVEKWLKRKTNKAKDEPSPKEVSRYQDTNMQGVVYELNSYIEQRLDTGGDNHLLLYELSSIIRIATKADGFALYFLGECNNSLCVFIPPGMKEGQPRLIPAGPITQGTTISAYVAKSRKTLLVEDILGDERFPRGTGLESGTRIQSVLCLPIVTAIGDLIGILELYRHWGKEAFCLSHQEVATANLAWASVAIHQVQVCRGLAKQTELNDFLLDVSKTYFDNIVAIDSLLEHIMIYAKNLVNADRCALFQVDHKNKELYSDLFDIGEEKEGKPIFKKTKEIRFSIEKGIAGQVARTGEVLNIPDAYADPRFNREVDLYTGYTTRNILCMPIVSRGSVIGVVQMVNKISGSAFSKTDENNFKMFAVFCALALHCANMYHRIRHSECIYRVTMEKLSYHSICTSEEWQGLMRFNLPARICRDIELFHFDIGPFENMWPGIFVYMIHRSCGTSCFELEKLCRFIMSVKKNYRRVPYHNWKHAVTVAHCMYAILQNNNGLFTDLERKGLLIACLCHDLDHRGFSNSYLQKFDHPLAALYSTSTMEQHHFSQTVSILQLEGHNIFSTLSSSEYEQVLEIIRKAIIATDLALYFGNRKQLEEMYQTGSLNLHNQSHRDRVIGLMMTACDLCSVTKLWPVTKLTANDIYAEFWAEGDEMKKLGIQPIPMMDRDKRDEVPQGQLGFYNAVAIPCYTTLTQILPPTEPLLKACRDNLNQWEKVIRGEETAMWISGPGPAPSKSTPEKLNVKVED
The experiment is described as follows: PDE10 enzyme inhibition, IMAP TR-FRET assay (Example A: MPDE10A7 Enzyme Activity and Inhibition). Format: biochemical. The settings on record: Table 1A, Examples 11-56; read-out: PDE10 IC50. The protocol:
MPDE10A7 Enzyme Activity and Inhibition Enzyme Activity. An IMAP TR-FRET assay was used to analyze the enzyme activity (Molecular Devices Corp., Sunnyvale Calif.). 5 μL of serial diluted PDE10A (BPS Bioscience, San Diego, Calif.) or tissue homogenate was incubated with equal volumes of diluted fluorescein labeled cAMP or cGMP for 60 min in 384-well polystyrene assay plates (Corning, Corning, N.Y.) at room temperature. After incubation, the reaction was stopped by adding 60 μL of diluted binding reagents and was incubated for 3 hours to overnight at room temperature. The plates were read on an Envision (Perkin Elmer, Waltham, Mass.) for time resolved fluorescence resonance energy transfer. The data were analyzed with GraphPad Prism (La Jolla, Calif.). Enzyme Inhibition. To check the inhibition profile, 5 μL of serial diluted compounds were incubated with 5 μL of diluted PDE10 enzyme (BPS Bioscience, San Diego, Calif.) or tissue homogenate in a 384-well polystyrene assay plate (Corning, Corning, N.Y.) for 30 min at room temperature. After incubation, 10 μL of diluted fluorescein labeled cAMP or cGMP substrate were added and incubated for 60 min at room temperature. The reaction was stopped by adding 60 μL of diluted binding reagents and plates were read on an Envision (Perkin Elmer, Waltham, Mass.) for time resolved fluorescence resonance energy transfer. The data were analyzed with GraphPad Prism (La Jolla, Calif.).
Consider `Clc1ccc(-c2nccnc2N2CC(c3nc4cc(Cl)ccc4[nH]3)C2)cc1` [Example 32, 5-chloro-2-{1-[3-(4-chloro-phenyl)-pyrazin-2-yl]-azetidin-3-yl}-1H-benzoimidazole], for which the pIC50 was 6.85. Take `COc1nccnc1N1CC(c2nc3cc(Cl)ccc3[nH]2)C1` [Example 45, 5-chloro-2-(1-(3-methoxypyrazin-2-yl)azetidin-3-yl)-1H-benzo[d]imidazole]: the pIC50 is 6.30.

As for `Clc1ccc2[nH]c(C3CN(c4ncccc4OC4CCOCC4)C3)nc2c1` [Example 49, 5-chloro-2-(1-(3-(tetrahydro-2H-pyran-4-yloxy)pyridin-2-yl)azetidin-3-yl)-1H-benzo[d]imidazole], the negative-log IC50 (pIC50) is 6.77.

Still in this experiment, the particulars now being: read-out: IC50.
For the compound `Cc1ccc2[nH]c(C3CN(c4nccnc4OC4CCOCC4)C3)nc2c1` [Example 1C, 5-METHYL-2-(1-(3-(TETRAHYDRO-2H-PYRAN-4-YLOXY)PYRAZIN-2-YL)AZETIDIN-3-YL)-1H-BENZO[D]IMIDAZOLE], the negative-log IC50 (pIC50) is 6.62. On the same count and under the same terms, with `Clc1ccc2[nH]c(C3CN(c4cc(C5CCOCC5)ccn4)C3)nc2c1` [Example 9, 5-CHLORO-2-(1-(4-(TETRAHYDRO-2H-PYRAN-4-YL)PYRIDIN-2-YL)AZETIDIN-3-YL)-1H-BENZO[D]IMIDAZOLE] the figure was 5.93. Same read-out and setting: with `c1cnc(N2CC(c3ccc4ccccc4n3)C2)c(N2CCCCC2)c1` [Example 59, 2′-(3-QUINOLIN-2-YL-AZETIDIN-1-YL)-3,4,5,6-TETRAHYDRO-2H-[1,3′]BIPYRIDINYL] the figure was 7.17.
